molecular target: Human immunodeficiency virus type 1 protease (Human immunodeficiency virus 1, UniProt Q72874); test: Inhibitory activity was measured against wild-type HIV-1 protease

Row | SMILES | Ki [nM]
1 | CN(Cc1ccccn1)C(=O)[C@H]1[C@H](C(=O)N[C@@H](Cc2ccccc2)[C@@H](O)[C@H](O)[C@H](Cc2ccccc2)NC(=O)[C@H]2[C@H](C(=O)N(C)Cc3ccccn3)C2(C)C)C1(C)C | 80
2 | CC1(C)[C@@H](C(=O)NCc2ccccc2)[C@@H]1C(=O)N[C@@H](Cc1ccccc1)[C@@H](O)[C@H](O)[C@H](Cc1ccccc1)NC(=O)[C@H]1[C@H](C(=O)NCc2ccccc2)C1(C)C | 0.31
3 | CC(C)[C@H](NC(=O)N(C)Cc1ccccn1)C(=O)N[C@@H](Cc1ccccc1)[C@@H](O)[C@H](O)[C@H](Cc1ccccc1)NC(=O)[C@@H](NC(=O)N(C)Cc1ccccn1)C(C)C | 0.11
4 | C[C@H]1[C@@H](C(=O)NCc2ccccc2)[C@@H]1C(=O)N[C@@H](Cc1ccccc1)[C@@H](O)[C@H](O)[C@H](Cc1ccccc1)NC(=O)[C@@H]1[C@@H](C)[C@H]1C(=O)NCc1ccccc1 | 0.16
5 | C[C@@H]1[C@@H](C(=O)NCc2ccccc2)[C@@H]1C(=O)N[C@@H](Cc1ccccc1)[C@@H](O)[C@H](O)[C@H](Cc1ccccc1)NC(=O)[C@@H]1[C@H](C)[C@H]1C(=O)NCc1ccccc1 | 0.47

— ChEMBL document CHEMBL1131211, “Cyclopropane-derived peptidomimetics. Design, synthesis, evaluation, and structure of novel HIV-1 protease inhibitors” (J Med Chem, 1998)
